The values below come from patent US10815222B2, “Compounds for use in the treatment of kinetoplastid infection” (C.N.C.C.S. S.c.a.r.l. COLLEZIONE NAZIONALE DEI COMPOSTI …, priority 2016, dated 2020).

By EC50 is commonly meant the concentration that produces a half-maximal response.

For the experiment, the system named is Bloodstream form of Trypanosoma brucei, strain Lister 427. Description: Trypanosoma brucei growth inhibition assay (CellTiter-Glo, 24 h). To be noted: Trypanosoma brucei; T. Brucei Growth Inibition Assay, class symbols; read-out: T. Brucei GI EC50. The class given is cell-based. Summed up: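 Growth read-out was CellTiter-Glo luminescence after 24 h at 37 °C incubation of 1500 bloodstream-form Lister 427 trypanosomes per well with compound, in supplemented IMDM containing 10% FBS and at most 0.25% DMSO.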
On to `COc1ccc2nc(C(F)(F)F)n(CC(=O)N3CCC(O)C[C@H]3c3ncc(-c4cc5ccccc5nc4OC)[nH]3)c2c1` (stereo partly drawn) [1-((2S)-4-hydroxy-2-(5-(2-methoxyquinolin-3-yl)-1H-imidazol-2-yl)piperidin-1-yl)-2-(6-methoxy-2-(trifluoromethyl)-1H-benzo[d]imidazol-1-yl)ethan-1-one], for which the EC50 is < 100 nM.

With `COc1ccc2nc(C(F)(F)F)n(CC(=O)N3CC[C@H](NCCn4cccn4)C[C@H]3c3ncc(-c4cc5ccccc5nc4OC)[nH]3)c2c1` [1-((2S,4S)-4-((2-(1H-pyrazol-1-yl)ethyl)amino)-2-(5-(2-methoxyquinolin-3-yl)-1H-imidazol-2-yl)piperidin-1-yl)-2-(6-methoxy-2-(trifluoromethyl)-1H-benzo[d]imidazol-1-yl)ethan-1-one], the EC50 is < 100 nM.

On to `COc1ccc2nc(C(F)(F)F)n(CC(=O)N3CC[C@H](NCCO)C[C@H]3c3ncc(-c4cc5ccccc5nc4OC)[nH]3)c2c1` [1-((2S,4S)-4-((2-hydroxyethyl)amino)-2-(5-(2-methoxyquinolin-3-yl)-1H-imidazol-2-yl)piperidin-1-yl)-2-(6-methoxy-2-(trifluoromethyl)-1H-benzo[d]imidazol-1-yl)ethan-1-one], for which the EC50 is < 100 nM.

Turning to `COc1ccc2nc(C(F)(F)F)n(CC(=O)N3CC[C@H](NCc4ccon4)C[C@H]3c3ncc(-c4cc5ccccc5nc4OC)[nH]3)c2c1` [1-((2S,4S)-4-((isoxazol-3-ylmethyl)amino)-2-(5-(2-methoxyquinolin-3-yl)-1H-imidazol-2-yl)piperidin-1-yl)-2-(6-methoxy-2-(trifluoromethyl)-1H-benzo[d]imidazol-1-yl)ethan-1-one], the EC50 is < 100 nM.

Take `COc1ccc2nc(C(F)(F)F)n(CC(=O)N3CC[C@H](NCc4cnoc4)C[C@H]3c3ncc(-c4cc5ccccc5nc4OC)[nH]3)c2c1` [1-((2S,4S)-4-((isoxazol-4-ylmethyl)amino)-2-(5-(2-methoxyquinolin-3-yl)-1H-imidazol-2-yl)piperidin-1-yl)-2-(6-methoxy-2-(trifluoromethyl)-1H-benzo[d]imidazol-1-yl)ethan-1-one]: the EC50 is < 100 nM.

`COc1ccc2nc(C(F)(F)F)n(CC(=O)N3CC[C@H](NC4CCC4)C[C@H]3c3ncc(-c4cc5ccccc5nc4OC)[nH]3)c2c1` [1-((2S,4S)-4-(cyclobutylamino)-2-(5-(2-methoxyquinolin-3-yl)-1H-imidazol-2-yl)piperidin-1-yl)-2-(6-methoxy-2-(trifluoromethyl)-1H-benzo[d]imidazol-1-yl)ethan-1-one]: the EC50 is < 100 nM.

For the compound `COc1ccc2nc(C(F)(F)F)n(CC(=O)N3CC[C@H](N(C)C)C[C@H]3c3ncc(-c4cc5ccccc5nc4OC)[nH]3)c2c1` [1-((2S,4S)-4-(dimethylamino)-2-(5-(2-methoxyquinolin-3-yl)-1H-imidazol-2-yl)piperidin-1-yl)-2-(6-methoxy-2-(trifluoromethyl)-1H-benzo[d]imidazol-1-yl)ethan-1-one], the EC50 is < 100 nM.

On to `CCN(C1CCOC1)[C@H]1CCN(C(=O)Cn2c(C(F)(F)F)nc3ccc(OC)cc32)[C@H](c2ncc(-c3cc4ccccc4nc3OC)[nH]2)C1` (stereo partly drawn) [1-((2S,4S)-4-(ethyl(tetrahydrofuran-3-yl)amino)-2-(5-(2-methoxyquinolin-3-yl)-1H-imidazol-2-yl)piperidin-1-yl)-2-(6-methoxy-2-(trifluoromethyl)-1H-benzo[d]imidazol-1-yl)ethan-1-one], for which the EC50 was < 100 nM.

As for `COc1ccc2nc(C(F)(F)F)n(CC(=O)N3CC[C@H](NCC(C)C)C[C@H]3c3ncc(-c4cc5ccccc5nc4OC)[nH]3)c2c1` [1-((2S,4S)-4-(isobutylamino)-2-(5-(2-methoxyquinolin-3-yl)-1H-imidazol-2-yl)piperidin-1-yl)-2-(6-methoxy-2-(trifluoromethyl)-1H-benzo[d]imidazol-1-yl)ethan-1-one], the EC50 was < 100 nM.

As to `COc1ccc2nc(C(F)(F)F)n(CC(=O)N3CC[C@H](N(Cc4ccn(C)n4)C(C)C)C[C@H]3c3ncc(-c4cc5ccccc5nc4OC)[nH]3)c2c1` [1-((2S,4S)-4-(isopropyl((1-methyl-1H-pyrazol-3-yl)methyl)amino)-2-(5-(2-methoxyquinolin-3-yl)-1H-imidazol-2-yl)piperidin-1-yl)-2-(6-methoxy-2-(trifluoromethyl)-1H-benzo[d]imidazol-1-yl)ethan-1-one], the EC50 was < 100 nM.

On to `COc1ccc2nc(C(F)(F)F)n(CC(=O)N3CC[C@H](NC(C)C)C[C@H]3c3ncc(-c4cc5ccccc5nc4OC)[nH]3)c2c1` [1-((2S,4S)-4-(isopropylamino)-2-(5-(2-methoxyquinolin-3-yl)-1H-imidazol-2-yl)piperidin-1-yl)-2-(6-methoxy-2-(trifluoromethyl)-1H-benzo[d]imidazol-1-yl)ethan-1-one], for which the EC50 is < 100 nM.

As for `COc1ccc2nc(C(F)(F)F)n(CC(=O)N3CC[C@H](N)C[C@H]3c3ncc(-c4cc5ccccc5nc4OC)[nH]3)c2c1` [1-((2S,4S)-4-amino-2-(5-(2-methoxyquinolin-3-yl)-1H-imidazol-2-yl)piperidin-1-yl)-2-(6-methoxy-2-(trifluoromethyl)-1H-benzo[d]imidazol-1-yl)ethan-1-one], the EC50 fell in the range of 1010 to 5000 nM.

As for `COc1ccc2nc(C(F)(F)F)n(CC(=O)N3CC[C@H](OC)C[C@H]3c3ncc(-c4cc5ccccc5nc4OC)[nH]3)c2c1` [1-((2S,4S)-4-methoxy-2-(5-(2-methoxyquinolin-3-yl)-1H-imidazol-2-yl)piperidin-1-yl)-2-(6-methoxy-2-(trifluoromethyl)-1H-benzo[d]imidazol-1-yl)ethan-1-one], the EC50 is < 100 nM.

Turning to `COc1ccc2nc(C)n(CC(=O)N3CC[C@H](OC)C[C@H]3c3ncc(-c4cc5ccccc5nc4OC)[nH]3)c2c1` [1-((2S,4S)-4-methoxy-2-(5-(2-methoxyquinolin-3-yl)-1H-imidazol-2-yl)piperidin-1-yl)-2-(6-methoxy-2-methyl-1H-benzo[d]imidazol-1-yl)ethan-1-one], the EC50 was < 100 nM.

Take `CN1CCN(S(=O)(=O)Cc2ccccc2)C(c2ncc(-c3ccc4ccccc4c3)[nH]2)C1` (stereo not shown) [1-(benzylsulfonyl)-4-methyl-2-(5-(naphthalen-2-yl)-1H-imidazol-2-yl)piperazine]: the EC50 was in the range of 1010 to 5000 nM.

Regarding `COc1nc2ccccc2cc1-c1cnc([C@@H]2CN(CC3CCOC3)CCN2C(=O)Cn2c(C(C)(C)C)nc3ccccc32)[nH]1` (stereo partly drawn) [2-(2-(tert-butyl)-1H-benzo[d]imidazol-1-yl)-1-((2S)-2-(5-(2-methoxyquinolin-3-yl)-1H-imidazol-2-yl)-4-((tetrahydrofuran-3-yl)methyl)piperazin-1-yl)ethan-1-one], the EC50 was < 100 nM.

As to `Cc1[nH]c2ccccc2c1CC(=O)N1CCN(CC2CCOC2)CC1c1ncc(-c2ccc3ccccc3c2)[nH]1` (stereo not shown) [2-(2-methyl-1H-indol-3-yl)-1-(2-(5-(naphthalen-2-yl)-1H-imidazol-2-yl)-4-((tetrahydrofuran-3-yl)methyl)piperazin-1-yl)ethan-1-one], the EC50 was < 100 nM.

As for `COc1cc2nc(C(F)(F)F)n(CC(=O)N3CCN(CC4CCOC4)C[C@H]3c3ncc(-c4cc5ccccc5nc4OC)[nH]3)c2cc1OC` (stereo partly drawn) [2-(5,6-dimethoxy-2-(trifluoromethyl)-1H-benzo[d]imidazol-1-yl)-1-((2S)-2-(5-(2-methoxyquinolin-3-yl)-1H-imidazol-2-yl)-4-((tetrahydrofuran-3-yl)methyl)piperazin-1-yl)ethan-1-one], the EC50 was < 100 nM.

Turning to `CCC(=O)CCCN1CCN(C(=O)Nc2ccccc2)C(c2ncc(-c3ccc4ccccc4c3)[nH]2)C1` (stereo not shown) [2-(5-(naphthalen-2-yl)-1H-imidazol-2-yl)-4-(4-oxohexyl)-N-phenylpiperazine-1-carboxamide], the EC50 was in the range of 1010 to 5000 nM.

As for `COc1nc2ccccc2cc1-c1cnc(C2CN(Cc3cnccn3)CCN2C(=O)Cc2c(C)[nH]c3ccc(F)cc23)[nH]1` (stereo not shown) [2-(5-fluoro-2-methyl-1H-indol-3-yl)-1-(2-(5-(2-methoxyquinolin-3-yl)-1H-imidazol-2-yl)-4-(pyrazin-2-ylmethyl)piperazin-1-yl)ethan-1-one], the EC50 was < 100 nM.

Regarding `COc1nc2ccccc2cc1-c1cnc(C2CN(C(=O)C3CCOC3)CCN2C(=O)Cc2c(C)[nH]c3ccc(F)cc23)[nH]1` (stereo not shown) [2-(5-fluoro-2-methyl-1H-indol-3-yl)-1-(2-(5-(2-methoxyquinolin-3-yl)-1H-imidazol-2-yl)-4-(tetrahydrofuran-3-carbonyl)piperazin-1-yl) ethan-1-one], the EC50 was 1010 to 5000 nM.

Take `COc1nc2ccccc2cc1-c1cnc(C2CNCCN2C(=O)Cc2c(C)[nH]c3ccc(F)cc23)[nH]1` (stereo not shown) [2-(5-fluoro-2-methyl-1H-indol-3-yl)-1-(2-(5-(2-methoxyquinolin-3-yl)-1H-imidazol-2-yl)piperazin-1-yl)ethan-1-one]: the EC50 was in the range of 1010 to 5000 nM.

`COc1nc2ccccc2cc1-c1cnc(C2CS(=O)(=O)CCN2C(=O)Cc2c(C)[nH]c3ccc(F)cc23)[nH]1` (stereo not shown) [2-(5-fluoro-2-methyl-1H-indol-3-yl)-1-(3-(5-(2-methoxyquinolin-3-yl)-1H-imidazol-2-yl)-1,1-dioxidothiomorpholino)ethan-1-one]: the EC50 was in the range of 100 to 500 nM.

Turning to `COc1nc2ccccc2cc1-c1cnc(C2CN([S+]([O-])C(C)C)CCN2C(=O)Cc2c(C)[nH]c3ccc(F)cc23)[nH]1` (stereo not shown) [2-(5-fluoro-2-methyl-1H-indol-3-yl)-1-(4-(isopropylsulfinyl)-2-(5-(2-methoxyquinolin-3-yl)-1H-imidazol-2-yl)piperazin-1-yl)ethan-1-one], the EC50 is 1010 to 5000 nM.

Consider `COc1nc2ccccc2cc1-c1cnc(C2CCN(Cc3ccn(C)n3)CCN2C(=O)Cc2c(C)[nH]c3ccc(F)cc23)[nH]1` (stereo not shown) [2-(5-fluoro-2-methyl-1H-indol-3-yl)-1-(7-(5-(2-methoxyquinolin-3-yl)-1H-imidazol-2-yl)-4-((1-methyl-1H-pyrazol-3-yl)methyl)-1,4-diazepan-1-yl)ethan-1-one], for which the EC50 is < 100 nM.
